Source: patent publication US6828315B1, “1-Amino triazoloc4,3-a! quinazoline-5-ones and/or -5-thiones inhibiting phosphodiesterase IV” (Warner-Lambert LLC, priority 1999, dated 2004)
Counter-ions that a name gives are not always drawn.

SMILES	melting point
CCN(CC)CCn1c(=O)c2cc(Br)ccc2n2c(N3CCCC3)nnc12 (as salt: HCl) [Compound 69, 7-Bromo-4-(2diethylamino-ethyl)-1-pyrrolidin-1-yl-4H-[1,2,4)triazolo[4,3-a]quinazolin-5-one]	215 °C
O=c1c2cc(Br)ccc2n2c(N3CCCC3)nnc2n1Cc1ccc2c(c1)OCO2 (hydrate or solvate) [Compound 53, 4-Benzo[1,3]dioxol-5-ylmethyl-7-bromo-1-pyrrolidin-1-yl-4H-[1,2,4]triazolo[4,3-a]quinazolin-5-one]	194 °C
O=c1nc2n(Cc3ccc4c(c3)OCO4)nc(N3CCCC3)n2c2ccc(Br)cc12 (hydrate or solvate) [Compound 149, 3-(benzo[1,3]dioxol-5-ylmethyl)-7-bromo-1-(pyrrolidin-1-yl)-3H-[1,2,4]triazolo[4,3-a]quinazolin-5-one]	234 °C
O=c1c2ccccc2n2c(N3CCCCCC3)nnc2n1CC=Cc1ccccc1 [Compound 6, 1-Azepan-1-yl-4-(3-phenyl-allyl)-4H-[1,2,4]triazolo[4,3-a]quinazolin-5-one]	144 °C
O=c1c2cc(Cl)ccc2n2c(N3CCCCCC3)nnc2n1Cc1ccccc1Cl [Compound 9, 1-(azepan-1-yl)-7-chloro-4-(2-chlorobenzyl)-4H-[1,2,4]triazolo[4,3-a]quinazolin-5-one]	160 to 162 °C
O=c1c2cc(Cl)ccc2n2c(N3CCCCCC3)nnc2n1Cc1cccc(Cl)c1 [Compound 10, 1-(azepan-1-yl)-7-chloro-4-(3-chlorobenzyl)-4H-[1,2,4]triazolo[4,3-a]quinazolin-5-one]	157 °C
O=c1c2cc(Cl)ccc2n2c(N3CCCCCC3)nnc2n1Cc1ccc(C(F)(F)F)cc1 [Compound 14, 1-(azepan-1-yl)-7chloro-4-(4-(trifluoromethyl)benzyl)-4H-[1,2,4]triazolo[4,3-a]quinazolin-5-one]	138 °C
COc1ccccc1Cn1c(=O)c2cc(Cl)ccc2n2c(N3CCCCCC3)nnc12 [Compound 16, 1-(azepan-1-yl)-7-chloro-4-(2-methoxybenzyl)-4H-[1,2,4]triazolo[4,3-a]quinazolin-5-one]	98 to 100 °C
COc1cccc(Cn2c(=O)c3cc(Cl)ccc3n3c(N4CCCCCC4)nnc23)c1 [Compound 17, 1-(azepan-1-yl)-7-chloro-4-(3-methoxybenzyl)-4H-[1,2,4]triazolo[4,3-a]quinazolin-5-one]	138 °C
COc1ccc(Cn2c(=O)c3cc(Cl)ccc3n3c(N4CCCCCC4)nnc23)cc1 [Compound 18, 1-(azepan-1-yl)-7-chloro-4-(4-methoxybenzyl)-4H-[1,2,4]triazolo[4,3-a]quinazolin-5-one]	138 °C
O=c1c2cc(Cl)ccc2n2c(N3CCCCCC3)nnc2n1Cc1ccccn1 [Compound 21, 1-(azepan-1-yl)-7-chloro-4-(2-pyridylmethyl)-4H-[1,2,4]triazolo[4,3-a]quinazolin-5-one]	152 °C
O=c1c2cc(Cl)ccc2n2c(N3CCCCCC3)nnc2n1Cc1ccncc1 [Compound 23, 1-(azepan-1-yl)-7-chloro-4-(4-pyridylmethyl)-4H-[1,2,4]triazolo[4,3-a]quinazolin-5-one]	137 °C
COc1ccc(CCn2c(=O)c3cc(Cl)ccc3n3c(N4CCCCCC4)nnc23)cc1 [Compound 25, 1-(azepan-1-yl)-7-chloro-4-[2-(4-methoxyphenyl)ethyl]-4H-[1,2,4]triazolo[4,3-a]quinazolin-5-one]	136 °C
O=C(Cn1c(=O)c2cc(Cl)ccc2n2c(N3CCCCCC3)nnc12)c1ccccc1 [Compound 27, 1-Azepan-1-yl-7-chloro-4-(2-oxo-2-phenyl-ethyl)-4H-[1,2,4]triazolo[4,3-a]quinazolin-5-one]	105 to 107 °C
O=C(Cn1c(=O)c2cc(Cl)ccc2n2c(N3CCCCCC3)nnc12)c1ccc(Cl)cc1 [Compound 29, 1-(azepan-1-yl)-7-chloro-4[2-(4-chlorophenyl)-2-oxoethyl]-4H-[1,2,4]triazolo[4,3-a]quinazolin-5-one]	190 °C
COC(=O)c1cc(C(=O)Cn2c(=O)c3cc(Cl)ccc3n3c(N4CCCCCC4)nnc23)ccc1OC [Compound 30, 5-[(1-(azepan-1-yl)-7-chloro-5-oxo-5H-[1,2,4]triazolo[4,3-a]-quinazolin-4-yl)acetyl]-2-methoxybenzoic acid methyl ester]	140 °C
O=c1c2cc(Cl)ccc2n2c(N3CCCC3)nnc2n1Cc1cccnc1 [Compound 31, 7-Chloro-4-pyridin-3-ylmethyl-1-pyrrolidin-1-yl-4H-[1,2,4]triazolo[4,3-a]quinazolin-5-one]	176 °C
O=c1c2cc(Br)ccc2n2c(N3CCCCCC3)nnc2n1Cc1ccc(F)cc1 [Compound 33, 1-Azepan-1-yl-7-bromo-4-(4-fluoro-benzyl)-4H-[1,2,4]triazolo[4,3-a]quinazolin-5-one]	158 °C
O=c1c2cc(Br)ccc2n2c(N3CCCCCC3)nnc2n1Cc1cccnc1 [Compound 36, 1-(azepan-1-yl)-7-bromo-4-(3-pyridinylmethyl)-4H-[1,2,4]triazolo[4,3-a]quinazolin-5-one]	180 °C

SMILES	melting point
O=c1c2cc(Br)ccc2n2c(N3CCCCCC3)nnc2n1CC=Cc1ccc(Cl)cc1 [Compound 38, 1-Azepan-1-yl-7-bromo-4-[3-(4-chloro-phenyl)-allyl]-4H-[1,2,4]triazolo[4,3-a]quinazolin-5-one]	176 °C
COc1ccc(C=CCn2c(=O)c3cc(Br)ccc3n3c(N4CCCCCC4)nnc23)cc1 [Compound 39, 1-Azepan-1-yl-7-bromo-4-[3-(4-methoxy-phenyl)-allyl]-4H-[1,2,4]triazolo[4,3-a]quinazolin-5-one]	129 °C
N#Cc1cccc(Cn2c(=O)c3cc(Br)ccc3n3c(N4CCCC4)nnc23)c1 [Compound 45, 3-(7-Bromo-5-oxo-1-pyrrolidin-1-yl-5H-[1,2,4]triazolo[4,3-a]quinazolin-4-ylmethyl)benzonitrile]	206 °C
COc1cc(Cn2c(=O)c3cc(Br)ccc3n3c(N4CCCC4)nnc23)cc(OC)c1OC [Compound 55, 7-Bromo-1-pyrrolidin-1-yl-4-(3,4,5-trimethoxy-benzyl)-4H-[1,2,4]triazolo[4,3-a]quinazolin-5-one]	141 to 143 °C
O=C(O)Cc1ccc(Cn2c(=O)c3cc(Br)ccc3n3c(N4CCCC4)nnc23)cc1 [Compound 56, [4-(7-Bromo-5-oxo-1-pyrrolidin-1-yl-5H-[1,2,4]triazolo[4,3-a]quinazolin-4-ylmethyl)-phenyl]-acetic acid]	260 °C
O=c1c2cc(Br)ccc2n2c(N3CCCC3)nnc2n1CC=Cc1ccccc1 [Compound 58, 7-Bromo-4-(3-phenyl-allyl)-1-pyrrolidin-1-yl-4H-[1,2,4]triazolo[4,3-a]quinazolin-5-one]	110 °C
O=c1c2cc(Br)ccc2n2c(N3CCCC3)nnc2n1Cc1c[nH]cn1 [Compound 63, 7-Bromo-4-(1H-imidazol-4-ylmethyl)-1-pyrrolidin-1-yl-4H-[1,2,4]triazolo[4,3-a]quinazolin-5-one]	290 °C (dec.)
Cc1noc(C)c1Cn1c(=O)c2cc(Br)ccc2n2c(N3CCCC3)nnc12 [Compound 64, 7-Bromo-4-(3,5-dimethyl-isoxazol-4-ylmethyl)-1-pyrrolidin-1-yl-4H-[1,2,4]triazolo[4,3-a]quinazolin-5-one]	221 °C
O=c1c2cc(Br)ccc2n2c(N3CCCC3)nnc2n1CC1CCCC1 [Compound 65, 7-Bromo-4-cyclopentylmethyl-1-pyrrolidin-1-yl-4H-[1,2,4]triazolo[4,3-a]quinazolin-5-one]	155 °C
CCCCn1c(=O)c2cc(Br)ccc2n2c(N3CCCC3)nnc12 [Compound 66, 7-Bromo-4-butyl-1-pyrrolidin-1-yl-4H-[1,2,4]triazolo[4,3-a]quinazolin-5-one]	135 °C
O=c1c2cc(Br)ccc2n2c(N3CCCC3)nnc2n1CC(F)(F)F [Compound 67, 7-Bromo-1-pyrrolidin-1-yl-4-(2,2,2-trifluoro-ethyl)-4H-[1,2,4]triazolo[4,3-a]quinazolin-5-one]	202 °C
O=c1c2cc(Br)ccc2n2c(N3CCCC3)nnc2n1CCO [Compound 68, 7-Bromo-4-(2-hydroxy-ethyl)-1-pyrrolidin-1-yl-4H-[1,2,4]triazolo[4,3-a]quinazolin-5-one]	240 °C
C#CCn1c(=O)c2cc(Br)ccc2n2c(N3CCCC3)nnc12 [Compound 70, 7-Bromo-4-prop-2-ynyl-1-pyrrolidin-1-yl-4H-[1,2,4]triazolo[4,3-a]quinazolin-5-one]	204 °C
O=c1c2cc(Br)ccc2n2c(N3CCCC3)nnc2n1CCOc1ccccc1 [Compound 71, 7-Bromo-4-(2-phenoxy-ethyl)-1-pyrrolidin-1-yl-4H-[1,2,4]triazolo[4,3-a]quinazolin-5-one]	171 °C
O=c1c2cc(Br)ccc2n2c(N3CCCC3)nnc2n1CCSc1ccccc1 [Compound 72, 7-Bromo-4-(2-phenylsulfenyl-ethyl)-1-pyrrolidin-1-yl-4H-[1,2,4]triazolo[4,3-a]quinazolin-5-one]	122 °C
COC(=O)C(c1ccccc1)n1c(=O)c2cc(Br)ccc2n2c(N3CCCC3)nnc12 (centres unmarked) [Compound 73, (7-Bromo-5-oxo-1-pyrrolidin-1-yl-5H-[1,2,4]triazolo[4,3-a]quinazolin-4-yl)-phenyl-acetic acid methyl ester]	184 °C
N#Cc1ccc(Cn2c(=O)c3cc(Br)ccc3n3c(N4CCCCC4)nnc23)cc1 [Compound 74, 4-(7-Bromo-5-oxo-1-piperidin-1-yl-5H-[1,2,4]triazolo[4,3-a]quinazolin-4-ylmethyl)-benzonitrile]	200 °C
O=c1c2cc(Br)ccc2n2c(N3CCSCC3)nnc2n1CC=Cc1cccnc1 [Compound 77, 7-Bromo-4(3-pyridin-3-yl-allyl)-1-thiomorpholin-4-yl-4H-[1,2,4]triazolo[4,3-a]quinazolin-5-one]	177 °C
CN(C)c1nnc2n(Cc3ccc(CC(=O)O)cc3)c(=O)c3cc(Br)ccc3n12 [Compound 82, [4-(7-Bromo-1-dimethylamino-5-oxo-5H-[1,2,4]triazolo[4,3-a]quinazolin-4-ylmethyl)-phenyl]-acetic acid]	246 °C
